In ChEMBL document CHEMBL2311302, “Synthesis and evaluation of 5'-modified thymidines and 5-hydroxymethyl-2'-deoxyuridines as Mycobacterium tuberculosis thymidylate kinase inhibitors” (Bioorg Med Chem, 2013):
Activity calls are given as the source filed them. The calls are words filed in the database; no cut-off is given here.

Tests used:
[1] = target: T1, Thymidylate kinase (Mycobacterium tuberculosis) (UniProt P9WKE1); assay: Inhibition of Mycobacterium tuberculosis thymidine monophosphate kinase at 2.4 mM by enzyme-coupling based spectrophotometric assay
T1 sequence (whole entry): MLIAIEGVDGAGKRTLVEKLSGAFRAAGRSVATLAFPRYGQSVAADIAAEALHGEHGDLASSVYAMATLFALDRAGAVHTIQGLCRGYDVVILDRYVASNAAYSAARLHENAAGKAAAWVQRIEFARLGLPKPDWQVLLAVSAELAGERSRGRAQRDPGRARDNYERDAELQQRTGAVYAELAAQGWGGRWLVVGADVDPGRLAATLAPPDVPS

[2] = target: T1, Thymidylate kinase (Mycobacterium tuberculosis); assay: Inhibition of Mycobacterium tuberculosis thymidine monophosphate kinase at 2.6 mM by enzyme-coupling based spectrophotometric assay
Thymidylate kinase = target: T2, Thymidylate kinase (Mycobacterium tuberculosis, UniProt P9WKE1); assay: Inhibition of Mycobacterium tuberculosis thymidine monophosphate kinase by enzyme-coupling based spectrophotometric assay
T2 sequence (P9WKE1 whole entry): T1 sequence (whole entry)

Compound	Ki (Thymidylate kinase) [µM]	further results
O=c1[nH]c(=O)n([C@H]2C[C@H](O)[C@@H](CCc3nnn[nH]3)O2)cc1CO		inhibition [1]: inactive
N#CCC[C@H]1O[C@@H](n2cc(CO)c(=O)[nH]c2=O)C[C@@H]1O		inhibition [2]: inactive
Cc1cn([C@H]2C[C@H](O)[C@@H](CCc3nnn[nH]3)O2)c(=O)[nH]c1=O	70	
Cc1cn([C@H]2C[C@H](O)[C@@H](CCC#N)O2)c(=O)[nH]c1=O	48	
Cc1cn([C@H]2C[C@H](O)[C@@H](CCS(C)(=O)=O)O2)c(=O)[nH]c1=O	340	
CNS(=O)(=O)CC[C@H]1O[C@@H](n2cc(C)c(=O)[nH]c2=O)C[C@@H]1O	240	
